Data as given in US9868715B2 (THE BOARD OF REGENTS OF THE UNIVERSITY OF TEXAS SYSTEMS, priority 2014, dated 2018).

Experiments:
[1] = test system: transformed PSC (human pancreatic stellate cells); test: PSC proliferation, AlamarBlue Cell Viability Assay; format: cell-based; conditions: for inhibition at 5 µM / inhibition at 10 µM / inhibition at 20 µM: Homo sapiens, read-out: Inhibitory Effect (%) on PSC proliferation; for inhibition at 5 µM / inhibition at 10 µM / inhibition at 20 µM / Inhibitory Effect (%) on PSC proliferation: mean of at least three independent experiments, NE = No effect; for Antiproliferative effect on PSC, result in words: transformed PSC, AlamarBlue; for inhibition at 10 µM / Inhibitory Effect (%) on PSC proliferation: 10 μM
Protocol: The calculated lipophilicity (cLogP) and topological polar surface area (tPSA) values of synthesized analogues are listed in Table 1. […] AlamarBlue is a non-toxic reagent that is converted to a highly fluorescent end product by viable cells.
Under an IRB-approved tissue protocol, discarded human resected pancreatic tissue (500 mm^3) was attained fresh from the operating room at the University of Texas Medical Branch. The tissue was minced and plated on a collagen-coated flask (15 μg/mL, Invitrogen) with DMEM (VWR; Radnor, Pa.) supplemented with penicillin 200 U/mL, streptomycin 200 μg/mL, amphotericin B 0.25 μg/mL and gentimicin 50 μg/mL (Invitrogen, Carlsbad Calif.), 10% fetal bovine serum (Lonza, Walkersville, Md.), 1% insulin-transferrin, selenium-ethanolamine (Gibco, Grand Island, N.Y.), and 1% non-essential amino acids (Sigma-Aldrich, St. Louis, Mo.). The human PSC were isolated by the outgrowth method.^41-43 The purity of PSC culture was confirmed by immunohistochemical staining for vimentin, α-smooth muscle actin, glial fibrillar acidic protein, or Oil red O staining. Primary PSC were transformed and immortalized for use in experiments using lentiviral vectors containing SV40 Large T antigen and human telomerase (plasmid #12245 and 12246; Addgene, Cambridge, Mass.). Cultures were maintained in DMEM with 10% FBS, at 37° C. in a humidified 95% O2/5% CO2 atmosphere.
Cell proliferation assay. Transformed PSC (3×10^3) were plated in 96-well plates, in sextuplicate. […] AlamarBlue reagent (10% sample volume, DAL1025) was added to each well per Invitrogen's protocol. Fluorescence was recorded using excitation/emission wavelengths of 544/590 nm and the SpectraMax M2 Microplate Reader (Molecular Devices, Sunnyvale Calif.).
Statistical analysis. Dose-response curves were generated by plotting fluorescence or absorbance versus log (compound concentration). A best-fit curve was created using nonlinear regression, and the IC50 or EC50 determined from the graph (GraphPad Prism 5; GraphPad Software Inc., La Jolla, Calif.). To analyze continuos variables, unpaired student t-tests and one-way ANOVA with Tukey-Kramer multiple comparisons post-test (GraphPad Prism 5). Significance was set at p<0.05.

[2] = biological target: T1, human CBS (cystathionine-β-synthase) (Homo sapiens, UniProt P35520); test: H2S production by recombinant CBS; format: biochemical; conditions: 100 μM compound; H2S production as % of control (100%)
T1 construct: GST (N); made in house; host or cells: E. coli BL21(DE3) Codon Plus
T1 sequence (P35520 1-551): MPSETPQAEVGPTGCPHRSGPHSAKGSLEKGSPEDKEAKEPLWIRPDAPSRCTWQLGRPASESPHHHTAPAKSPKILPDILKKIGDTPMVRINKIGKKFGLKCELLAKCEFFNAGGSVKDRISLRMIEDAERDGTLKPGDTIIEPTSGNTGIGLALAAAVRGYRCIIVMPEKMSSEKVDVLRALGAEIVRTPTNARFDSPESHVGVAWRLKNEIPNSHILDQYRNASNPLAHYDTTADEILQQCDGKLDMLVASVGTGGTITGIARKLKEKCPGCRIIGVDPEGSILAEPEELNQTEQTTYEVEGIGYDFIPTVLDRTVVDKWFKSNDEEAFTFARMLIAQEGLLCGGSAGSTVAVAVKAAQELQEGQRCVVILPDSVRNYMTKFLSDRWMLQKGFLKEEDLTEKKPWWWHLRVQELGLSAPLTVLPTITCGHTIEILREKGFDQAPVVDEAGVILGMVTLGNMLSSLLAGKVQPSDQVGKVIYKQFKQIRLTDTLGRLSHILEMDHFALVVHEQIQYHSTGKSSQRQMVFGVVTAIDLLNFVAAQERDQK
Protocol: Recombinant human CBS protein expression and purification. The expression and purification of human CBS was performed as described previously (Asimakopoulou et al. 2013, Br J Pharmacol. 169(4):922-32). Briefly, E. Coli BL21(DE3) Codon Plus cells (Stratagene, La Jolla, Calif., USA) containing the expression vector pGEX-Kg/GST-CBS were grown at 37° C. and 180 rpm in LuriaBertani (LB) broth medium containing 100 μg/ml ampicillin to an absorption of 0.6-0.8 at 600 nm. Protein expression was induced by addition of 0.1 mM IPTG (isopropyl-b-D-thiogalactopyranoside) and cells were further incubated at 30° C. overnight. The bacteria were harvested and sonicated in lysis buffer PBS (140 mM NaCl, 2.7 mM KCl, 10 mM Na2HPO4, 1.8 mM KH2PO4, pH 7.8) containing a protease inhibitors cocktail (Sigma). The protein lysate was loaded onto a GSTrap FF 1 ml affinity column (Amersham Biosciences) and the GST-CBS recombinant protein was eluted with the elution buffer (50 mM Tris-HCl, 10 mM reduced glutathione, pH 8.0) and then dialyzed and concentrated in 10 mM sodium phosphate buffer (pH 8.2) and DTT (1 mM).
Measurement of H2S production by recombinant CBS. The measurement of H2S production by recombinant CBS enzyme was performed as described (Asimakopoulou et al. 2013, Br J Pharmacol. 169(4):922-32). Briefly, each test consisted of a 100 μl reaction mixture in 50 mM sodium phosphate buffer pH 8.2 containing 1 μg of the purified human CBS enzyme, 0.01 mM pyridoxal-5′-phosphate (PLP), 10 mM L-cysteine and 0.5 mM homocysteine. […] The reaction was initiated by transferring the Eppendorf tubes from ice to a 37° C. shaking water bath. After 60 minutes of incubation at 37° C., the reaction was terminated by adding 1% ZnAc followed by 10% trichloroacetic acid. Subsequently, N,N-dimethylphenylendiamine sulfate (20 mM in 7.2 M HCl) and FeCl3 (30 mM in 1.2 M HCl) were added and the optical absorbance of the solutions was measured at 650 nm.

| Structure (SMILES) | inhibition at 5 µM [1] [%] | inhibition at 10 µM [1] [%] | activity at 100 µM [2] [%] | melting point [°C] | inhibition at 20 µM [1] [%] | Antiproliferative effect on PSC, result in words [1] | Inhibitory Effect (%) on PSC proliferation [1] [%] |
| --- | --- | --- | --- | --- | --- | --- | --- |
| COc1cc(OC)c2c(=O)cc(-c3ccc(OCCCN)cc3)oc2c1 [Compound 21, 2-(4-(3-Aminopropoxy)-phenyl)-5,7-dimethoxy-chromen-4-one] | 22 | 39 | 116 | 170 to 171 | – | – | – |
| COc1cc(OC)c2c(=O)cc(-c3ccc(OCC(O)CO)cc3)oc2c1 (stereo not shown) [Compound 28, 2-(4-(2,3-Dihydroxypropoxy)phenyl)-5,7-dimethoxy-chromen-4-one] | – | 11 | 104 | 203 to 204 | 16 | dramatic loss of activities | – |
| COc1cc(OC)c2c(=O)cc(-c3ccc(OCCN4CCCC4=O)cc3)oc2c1 [Compound 13, 1-(2-(4-(5,7-Dimethoxy-4-oxo-4H-chromen-2-yl)phenoxy)ethyl)-pyrrolidin-2-one] | 7 | 14 | 108 | 115 to 116 | 33 | – | – |
| COc1cc(OC)c2c(=O)cc(-c3ccc(OCCBr)cc3)oc2c1 [Compound 7, 2-(4-(2-Bromoethoxy)phenyl)-5,7-dimethoxy-chromen-4-one] | – | – | 121 | 202 to 203 | 20 | slightly increased antiproliferative effects in comparison with 6 | – |
| COc1cc(OC)c2c(=O)cc(-c3ccc(OCCN4CCN(C)CC4)cc3)oc2c1 [Compound 15, 5,7-Dimethoxy-2-(4-(2-(4-methylpiperazin-1-yl)ethoxy)phenyl)-chromen-4-one] | 22 | 42 | 124 | 144 to 145 | 67 | – | – |
| COC(=O)[C@@H]1CCCN1CCOc1ccc(-c2cc(=O)c3c(OC)cc(OC)cc3o2)cc1 [Compound 18, 1-(2-(4-(5,7-Dimethoxy-4-oxo-4H-chromen-2-yl)phenoxy)ethyl)-pyrrolidine-2-carboxylic acid methyl ester] | 22 | 37 | 116 | 121 to 122 | 67 | – | – |
| COc1cc(O)c2c(=O)cc(-c3ccc(OCCN4CCCC4)cc3)oc2c1 [Compound 38] | – | 39 | 109 | 127 to 129 | 99 | – | – |
| COc1cc(OC)c2c(=O)cc(-c3ccc(Br)cc3)oc2c1 [Compound 31, 2-(4-Bromophenyl)-5,7-dimethoxy-chromen-4-one] | 12 | 10 | 69.4 | – | 22 | – | – |
| COc1cc(OC)c2c(=O)cc(-c3ccc(OC4CCN(C)CC4)cc3)oc2c1 [Compound 9, 5,7-Dimethoxy-2-(4-(1-methylpiperidin-4-yloxy)phenyl)-chromen-4-one] | 28 | 49 | 122 | 143 to 144 | – | – | 49 |
| COc1cc(OC)c2c(=O)cc(-c3ccc(OCCN(C)C)cc3)oc2c1 [Compound 10, 2-(4-(2-Dimethylaminoethoxy)phenyl)-5,7-dimethoxy-chromen-4-one] | 19 | 51 | 125 | 153 to 154 | 65 | – | 51 |
| CCN(CC)CCOc1ccc(-c2cc(=O)c3c(OC)cc(OC)cc3o2)cc1 [Compound 17, 2-(4-(2-Diethylaminoethoxy)-phenyl)-5,7-dimethoxy-chromen-4-one] | 33 | 60 | 106 | 116 to 117 | 72 | – | – |
| COc1cc(OC)c2c(=O)cc(-c3ccc(O)cc3)oc2c1 [Compound 6, 2-(4-Hydroxy-phenyl)-5,7-dimethoxy-chromen-4-one] | – | – | 130 | – | – | – | – |
| COc1cc(OC)c2c(=O)cc(-c3ccc(OCCCN(C)C)cc3)oc2c1 [Compound 12, 2-(4-(3-Dimethylaminopropoxy)phenyl)-5,7-dimethoxy-chromen-4-one] | 36 | 59 | 83.9 | 105 to 106 | 86 | – | 59 |
| COc1cc(OC)c2c(=O)cc(-c3ccc(-c4ccc(F)nc4)cc3)oc2c1 [Compound 33, 2-(4-(6-Fluoropyridin-3-yl)phenyl)-5,7-dimethoxy-chromen-4-one] | – | 6 | 107 | 209 to 210 | 19 | substantial loss of the activity | – |
| COc1cc(OC)c2c(=O)cc(-c3ccc(OCCN)cc3)oc2c1 [Compound 20, 2-(4-(2-Aminoethoxy)-phenyl)-5,7-dimethoxy-chromen-4-one] | 6 | 35 | 119 | 165 to 166 | 70 | – | – |
| O=c1cc(-c2ccc(OCCN3CCCC3)cc2)oc2cc(O)cc(O)c12 [Compound 39] | 2 | 71 | 99.6 | 228 to 229 | 90 | – | – |
| COc1cc(OC)c2c(=O)cc(-c3ccc(OCCN4CCOCC4)cc3)oc2c1 [Compound 11, 5,7-Dimethoxy-2-(4-(2-morpholin-4-yl-ethoxy)phenyl)-chromen-4-one] | – | – | 117 | 149 to 150 | – | – | – |
